{"source": "patent US12590296B2", "about": "“Method of culturing immortalized human hepatic progenitors or cells” (INSERM (INSTITUT NATIONAL DE LA SANTÉ ET DE LA RECHERCHE …, priority 2019, dated 2026)", "key": {"HepaRG cells [1]": {"system": "HepaRG cells", "details": "HepaRG cells in 3D GelMa culture, in the presence of U126 (16.4% in its absence); data not shown"}, "HuH-7 cells [2]": {"system": "HuH-7 cells", "experiment": "Cleaved caspase 3 (apoptosis) in HuH-7 cells in 3D GelMa culture", "assay_type": "cell-based, human", "details": "treatment at day 14, data not shown", "protocol": "Cell laden 3D constructs were fixed in 4% formaldehyde, washed 3 times in PBS and stored at 4° C. until use or immediately suspended in a 0.12 M phosphate buffer containing 10% w/v saccharose and incubated overnight. They were embedded in a protective matrix composed of gelatin 7.5% w/v and 10% w/v saccharose, then frozen in isopentane and cryosectioned at a thickness of 7 μm. Slides were stained on the Discovery Automated IHC stainer using the discovery Rhodamin kit (Ventana Mediacl systems, Tucson, AZ, USA). The concentrations and references of the primary antibodies that were used can be found in Table 1 below. After rinsing, signal enhancement was performed using the Ventana Rhodamin kit and secondary antibody anti-rabbit HRP (760-4311, Roche) or secondary antibody anti-mouse HRP (760-4310, Roche) for 16 min of incubation. After removal from the instrument, slides were manually rinsed, stained when required with albumin antibody then a secondary antibody for albumin detection (Donkey anti goat 488), and mounted with Dapi Fluoromount-G."}, "LX-2 cells [3]": {"system": "LX-2 cells", "experiment": "mRNA expression (RT-qPCR) in LX-2 cells in 3D GelMa culture", "assay_type": "cell-based, human", "details": "5 ng/mL every 48 h from day 2", "protocol": "After 1, 2 and 4 week(s) of culture, 3D constructs comprising 3D cell structures were harvested, washed twice in PBS and total ribonucleic acid (RNA) was extracted using TRIzol™ reagent. The concentration of total RNA was measured with a NanoDrop ND-1000 (NanoDrop Technologies). Complementary deoxyribonucleic acid (cDNA) was synthetized using the High Capacity cDNA reverse transcriptase kit (Applied Biosystems Foster City, CA, USA), and real-time polymerase chain reaction (PCR) was performed using the Power SYBR Green PCR master mix (Applied Biosystems Foster City, CA, USA). […] The expression levels of the target genes were normalized to those of GAPDH and determined by the ΔΔCt method. Final results were expressed as the n-fold difference in target gene expression in samples when compared with the mean expression values of the target gene for controls: either non-differentiated HepaRG (referred to as 2D) or HepaRG differentiated in standard 2D culture conditions (referred to as 2D DMSO). […]\nFirst, the culture of LX-2 cells alone in 3D GelMa culture was assessed, with or without treatment with TGFβ-1, a classical pro-fibrotic cytokine (Czaja et al., J Cell Biol. 1989 June; 108(6):2477-82). […] Then, the mRNA expression of ACTA2, ADAMTS12, LPL, COL1A1, MMP2, TGFβ-1 and TIMP1 was assessed in LX-2 cells in 3D GelMa culture, stimulated or not by TGFβ-1 (FIGS. 14A-G, respectively). […]"}, "LX-2 cells [4]": {"system": "LX-2 cells", "experiment": "SHG microscopy of fibrillar collagen, LX-2 cells alone in 3D GelMa", "assay_type": "cell-based, human", "details": "LX-2 cells cultured alone in 3D GelMa, after induction", "protocol": "(§1) TPEF/SHG microscopy imaging was performed on mRIC facility of Biosit, University of Rennes1 (France). The SHG imaging system is composed of a confocal TCS SP5 scanning head (Leica Microsystems, Mannheim, Germany) mounted on a DMIRE2 inverted microscope (Leica Microsystems) and equipped with a MAITAI femtosecond laser (Spectra Physics, Santa Clara, CA). 60× water immersion objective (Olympus LUMFL 60 W×1.1NA) was used for applying an 820 nm excitation to the sample. The SHG signal was collected in the forward direction using the condenser (S1, NA ¼ 0.9-1.4; Leica Microsystems), and the TPEF was epi-collected in the backward direction. IRSP 715 bandpass and 410 nm infrared (IR) filters (10 nm full width at half-maximum, FWHM) were placed before the photomultiplier tube. The image processing was performed with ImageJ software (National Institutes of Health).\n(§2) SHG microscopy was used to visualize fibrillar collagen, mostly collagen-1 and -3. Briefly, SHG relies on the nonlinear optical interactions with […] fibrillar structures, such as collagen type I, allowing their detection and quantification in 3D tissues. […] For example, such culture is not suitable for the study of liver fibrosis."}, "HepaRG cells [5]": {"system": "HepaRG cells", "experiment": "SHG microscopy of fibrillar collagen, HepaRG cells alone in 3D GelMa", "assay_type": "cell-based, human", "details": "HepaRG cells cultured alone in 3D GelMa, with or without treatment", "protocol": "as §1, §2"}, "[6]": {"system": "HepaRG cells in coculture with LX-2 cells and HUVECs (CoC)", "experiment": "mRNA expression (RT-qPCR) in HepaRG + LX-2 + HUVECs coculture (CoC) in 3D GelMa", "assay_type": "cell-based, human", "protocol": "After 1, 2 and 4 week(s) of culture, 3D constructs comprising 3D cell structures were harvested, washed twice in PBS and total ribonucleic acid (RNA) was extracted using TRIzol™ reagent. The concentration of total RNA was measured with a NanoDrop ND-1000 (NanoDrop Technologies). Complementary deoxyribonucleic acid (cDNA) was synthetized using the High Capacity cDNA reverse transcriptase kit (Applied Biosystems Foster City, CA, USA), and real-time polymerase chain reaction (PCR) was performed using the Power SYBR Green PCR master mix (Applied Biosystems Foster City, CA, USA). Basic local alignment search tool (BLAST) was used to design primer sequences which were purchased from Eurogentec (Searing, BE). The expression levels of the target genes were normalized to those of GAPDH and determined by the ΔΔCt method. Final results were expressed as the n-fold difference in target gene expression in samples when compared with the mean expression values of the target gene for controls: either non-differentiated HepaRG (referred to as 2D) or HepaRG differentiated in standard 2D culture conditions (referred to as 2D DMSO). All results are presented as mean±SD of at least n=3 experiments.\n(§3) For coculture constructs, the bioprinted 3D structure comprising HepaRG cells and LX-2 cells was cultured during a week, before being put in a low attachment plate containing 1×10^6 HUVECs per mL of medium.\nThe mRNA expression of hepatic genes (ALB, ALDOB, PPARA and SERPINA1) and of myofibroblastic transition genes and extracellular matrix remodeling genes (ACTA2, ADAMTS12, COL1A1, COL3A1, MMP2, MMP9 and TIMP1) was assessed at day 21 (i) in HepaRG alone in 3D GelMa culture, (ii) in HepaRG in 3D GelMa culture with LX-2 cells and HUVECs (CoC) and (iii) in HepaRG in 3D GelMa culture with LX-2 cells and HUVECs (CoC) activated with TGFβ-1 treatment for 7 days (FIGS. 16A-K). […] The albumin secretion of the HepaRG cells in coculture with the LX-2 cells and HUVECs (CoC) was also assessed and compared to that of HepaRG cells cultured alone (HepaRG) and bioprinted in GelMa matrix under the same conditions."}, "[7]": {"system": "HepaRG cells in coculture with LX-2 cells and HUVECs (CoC)", "experiment": "Albumin, urea and pro-collagen 1a1 secretion in coculture (CoC)", "assay_type": "cell-based, human", "protocol": "(§4) Medium samples were taken for the determination of albumin and urea content every 48 h. Secreted albumin and proCol1a1 (pro-collagen 1 alpha 1) were quantified using the human serum albumin Duoset Enzyme Linked Immunosorbent Assay (ELISA) kit (R&D systems, Minneapolis, MN, USA) and the human pro-Col1a1 Duoset Enzyme Linked Immunosorbent Assay kits (R&D systems, Minneapolis, MN, USA), according to manufacturer's instructions. Quantification was performed by measuring absorbance at 450 nm using a microplate reader (SpectrostarNano, BMG labtech, Champigny s/Marne, FR). Urea secretion in the medium was measured using a ChromaDazzle Urea Assay kit (AssayGenie, Dublin, IR) according to the manufacturer's protocol, using medium as standard and reading the absorbance at 420 nm (SpectrostarNano, BMG labtech, Champigny s/Marne, FR)\nas §3"}, "[8]": {"system": "HepaRG cells in coculture with LX-2 cells and HUVECs (CoC)", "experiment": "LDH release in coculture (CoC)", "assay_type": "cell-based", "details": "5 ng/mL every 48 h for 7 days", "protocol": "(§5) Cell viability was assessed by using the WST-1 (water soluble tetrazolium-1) proliferation assay on cell laden 3D constructs at different days or times of culture. Briefly, the cell laden 3D constructs were treated with 100 μL of WST-1 reagent and incubated 30 min at 37° C. Absorbance at 440 nm was read in a microplate reader (SpectrostarNano, BMG labtech, Champigny s/Marne, FR) and the values were converted into percentage of absorbance by comparison with controls assessed at day 0 or time 0. Measurement of lactate dehydrogenase (LDH) was performed on supernatants with the LDH-Glo™ Cytotoxicity Assay (Promega) by following manufacturer's instructions."}, "HepaRG or HepaRG+HUVECs": {"system": "HepaRG or HepaRG+HUVECs", "experiment": "Pro-collagen 1a1 secretion (ELISA) in HepaRG or HepaRG+HUVECs", "assay_type": "cell-based, human", "details": "day 21", "protocol": "as §4"}, "[9]": {"assay_type": "physicochemical", "protocol": "The physical properties of different methacrylated gelatin matrices (GelMa matrices) were analyzed by assessing the polymerization and bioprinting properties of the matrices as a function of the GelMa concentration, the photoinitiator LAP concentration and the illumination time at 405 nm (FIG. 1). As shown on FIG. 1A, at 20° C. a concentration of GelMa of 2.5% was not sufficient to ensure a proper polymerization of the matrix and subsequently, an optimal viscosity for the bioprinting process. As shown on FIG. 1B, a minimum concentration of LAP (i.e., 0.1% (w/v)) and an optimized illumination time (i.e., 60 seconds) were defined to reduce the phototoxicity and the production of excess free radicals while maintaining sufficient structural integrity of the printed GelMa for 28 days at 37° C. As shown on FIGS. 1C-D, weight loss of the matrices was assessed as a function of the photoinitiator LAP concentration (either 0.1% (w/v) on FIG. 1C or 0.3% (w/v) on FIG. 1D) and the illumination time at 405 nm. A rapid decrease of the matrix weight, of up to about 40%, was observed 5 hours after the polymerization process (FIG. 1C-D). Then, a constant weight for at least 28 days was observed, indicating a good stability of the matrix in the culture medium at 37° C. (FIGS. 1C-D). […]"}, "HuH-7 cells [10]": {"system": "HuH-7 cells", "assay_type": "cell-based, human", "protocol": "as §5"}, "[11]": {"details": "CoC, day 21, 5 ng/mL every 48 h for 7 days"}}, "note": "Entries after “also recorded” stand apart in the source; their conditions may differ."}
{"compound": "N#CC(=C(/N)Sc1ccccc1N)/C(C#N)=C(/N)Sc1ccccc1N", "note": "[U126]", "values": [{"measurement": "EdU positive cells", "setting": "HepaRG cells [1]", "result": 0.9, "unit": "%"}]}
{"compound": "N.N.[Cl][Pt][Cl]", "note": "[cisplatin]", "values": [{"measurement": "response of the cells to an apoptotic inducer (caspase 3)", "setting": "HuH-7 cells [2]", "result": "responded well"}]}
{"compound": "TGFβ-1: a classical pro-fibrotic cytokine", "values": [{"measurement": "mRNA expression of ACTA2, COL1A1, MMP2 and TIMP1", "setting": "LX-2 cells [3]", "result": "clearly increased in a time-dependent manner"}, {"measurement": "collagen fibrils (SHG microscopy)", "setting": "LX-2 cells [4]", "result": "Very few collagen fibrils or no collagen fibrils at all; also recorded: no collagen fibrils were ever observed"}, {"measurement": "collagen deposition (SHG microscopy)", "setting": "HepaRG cells [5]", "result": "No collagen deposition"}, {"measurement": "expression of genes involved in ECM homeostasis (ACTA2, ADAMTS12, COL1A1, COL3A1, MMP2, MMP9 and TIMP1)", "setting": "[6]; [11]", "result": "increase"}, {"measurement": "hepatic gene mRNA expression (ALB, ALDOB, PPARA and SERPINA1)", "setting": "[6]; [11]", "result": "decrease"}, {"measurement": "COL1A1 expression", "setting": "[6]; HepaRG alone, HepaRG+HUVECs and CoC (all three conditions)", "result": "significant increase"}, {"measurement": "albumin secretion", "setting": "[7]; CoC, 5 ng/mL every 48 h for 7 days", "result": "decrease"}, {"measurement": "urea secretion", "setting": "[7]; CoC, over the 21 days of culture, with or without treatment, data not shown", "result": "remained stable"}, {"measurement": "pro-collagen 1a1 secretion", "setting": "[7]; HepaRG+LX-2+HUVECs (CoC), day 21", "result": "no significant increase"}, {"measurement": "release of LDH (a cell death marker) in the medium", "setting": "[8]", "result": "no specific release"}, {"measurement": "pro-collagen 1a1 secretion", "setting": "HepaRG or HepaRG+HUVECs", "result": "significatively induces its secretion"}]}
{"compound": "methacrylated gelatin [GelMa]", "values": [{"measurement": "constant weight (stability of the matrix in the culture medium)", "setting": "[9]", "result": "at least 28 days"}, {"measurement": "HuH-7 cell viability (WST-1 proliferation assay)", "setting": "HuH-7 cells [10]", "result": "no decrease"}]}
